Laboratory results from patent US10098840B2, “Nanoparticulate composition containing antibiotics for intramammary administration in animals” (priority 2010, dated 2018).

Key:
[1] = In vitro release profile of cloxacillin benzathine by direct dialysis in PBS:PEG and PBS:milk; assay type: physicochemical; conditions: 37° C.; PBS:PEG vs PBS:milk
Protocol: The evaluation of the release profile in vitro of the cloxacillin benzathine from the nanocarriers of reservoir type was performed according to the direct dialysis technique in two different release environments. Dialysis bags were inserted in containers containing a buffered saline solution and 1% polyethylene glycol 300 (PBS:PEG) or a buffered saline containing 1% of skimmed milk (PBS:milk) under 37° C. with moderate stirring. […] In pre-defined lapses, aliquots were removed and the environment was re-added with the same volume withdrawn. Right after, the samples were prepared and the supernatant dosed.

[2] = Degradation of the drug by HPLC during the dissolution test at pH 7.4; assay type: physicochemical; conditions: until 540 minutes of test
Protocol: In this work, the dissolution was conducted in pH 7.4 for it is about the pH of the milk of animals with mastitis (Gruet et al., 2001).

Question: For `Cc1onc(-c2ccccc2Cl)c1C(=O)N[C@@H]1C(=O)N2[C@@H]1SC(C)(C)[C@@H]2C(=O)O` [CLOXB, cloxacillin benzathine], which “release depending on the environment (1% PEG vs 1% milk), in words” value [1] is on record?
Answer: Its value is “release was bigger in environment containing 1% of PEG”.

Question: What about the “degradation of the drug” value [2] of the same compound?
Answer: The value was “no degradation”.
